Laboratory results: patent US20190090524A1, “NOVEL COMPOSITIONS FOR FLAVOR ENHANCEMENT” (INTERNATIONAL FLAVORS & FRAGRANCES INC., priority 2016, published 2019)

Key:
Format in all cases: in vivo
[1] = Flavor of β-sitosterol solutions in water; details: 2.5 to 600 ppb
[2] = Alcohol impression in alcohol-free beer, panel comparison with alcohol solutions; details: 25 ppb in Brahma 0.0% alcohol free beer
Method: 1. […] 2. Alcohol solutions containing varying amounts of ethanol (Alcohol by Volume, “ABV”) were prepared as follows: • Alcohol solutions at 1% ABV, 2% ABV, 2.5% ABV, 3% ABV and 5% ABV were prepared by adding varying amounts of ethanol in Brahma 0.0% alcohol-free beer (Anheuser-Busch InBev); • Alcohol solution at 6% ABV was prepared by adding ethanol in water; and • Alcohol solutions with ABV ranging from 8.75% to 50% were prepared by diluting CAPTAIN MORGAN® Original Spiced Rum (35% ABV) (Diageo North America Inc.) in varying amounts of water. 3. Carbonated water containing carbon dioxide at 6.0, 7.2 and 8.0 g/L, respectively, were prepared.
A β-sitosterol solution (prepared in Example I) was added in Brahma 0.0% alcohol free beer to yield a final concentration of 25 ppb. The alcohol impression of the obtained sample was evaluated and compared by a panel with alcohol solutions at 1% ABV, 2% ABV, 2.5% ABV, 3% ABV and 5% ABV (prepared in Example I). 3-Sitosterol (25 ppb) provided an equal level of alcohol impression as the alcohol solution at 2.5% ABV.

[3] = Alcohol sensation intensity in 6% ABV solution, panel, scale 0 to 10; details: mean; 100 ppb in solution of 6% ABV; scale 0 to 10 (0=none, 4=medium, 7=high, 10=extremely high); p<0.01 vs 6% ABV alone
Method: (A) A β-sitosterol solution (prepared in Example I) was added to the alcohol solution at 6% ABV (prepared in Example I) to yield a final concentration of 100 ppb.
The alcohol sensation of the obtained sample was evaluated and compared by a panel with the alcohol solution at 6% ABV using an intensity scale of 0 to 10, where 0=none, 4=medium, 7=high and 10=extremely high. The intensity of alcohol sensation was rated. Mean (“Alcohol Intensity”) and standard error of the mean (“SE”, +) were obtained.

[4] = Alcohol sensation in 17.5% ABV solution with 3 to 500 ppb β-sitosterol
Method: (B) A series of β-sitosterol solutions (prepared in Example I) were added to the alcohol solution at 17.5% ABV (prepared in Example I) to yield final concentrations of β-sitosterol ranging from 3 to 500 ppb. The alcohol sensation of the obtained samples containing different amounts of β-sitosterol was evaluated.

[5] = Alcohol sensation of alcohol solutions with 25 ppb β-sitosterol, panel comparison with higher ABV solutions
Method: (C) A β-sitosterol solution (prepared in Example I) was added to alcohol solutions at 8.75% ABV, 17.5% ABV and 21.75% ABV (prepared in Example I), respectively, to yield a final concentration of 25 ppb. The alcohol sensation of the obtained samples was evaluated and compared by a panel with alcohol solutions at higher levels of ABV, respectively.

[6] = Carbonation effect intensity in carbonated water (7.2 g/L CO2), panel, scale 0 to 10; details: mean; 2.5 ppt in carbonated water 7.2 g/L CO2; scale 0 to 10 (0=none, 4=medium, 7=high, 10=extremely high); p<0.01 vs carbonated water alone
Method: (A) A β-sitosterol solution (prepared in Example I) was added to the carbonated water (7.2 g/L CO2) (prepared in Example I) to yield a final concentration of 2.5 ppt.
The carbonation effect of the obtained sample was evaluated and compared by a panel with the carbonated water using an intensity scale of 0 to 10, where 0=none, 4=medium, 7=high and 10=extremely high. The intensity of carbonation effect was rated. Mean (“Carbonation Intensity”) and standard error of the mean (“SE”, +) were obtained.

[7] = Carbonation sensation in carbonated water (7.2 g/L CO2) with 0.1 to 50 ppt β-sitosterol
Method: (B) A series of β-sitosterol solutions (prepared in Example I) were added to the carbonated water (7.2 g/L CO2) (prepared in Example I) to yield final concentrations ranging from 0.1 to 50 ppt. The carbonation sensation of the obtained samples containing different amounts of […] was evaluated.

[8] = Carbonation sensation in carbonated water of 6.0, 7.2 and 8.0 g/L CO2 with 2.5 ppt β-sitosterol; details: 2.5 ppt in carbonated water of 6.0, 7.2 and 8.0 g/L CO2, all samples
Method: (C) A β-sitosterol solution (prepared in Example I) was added to carbonated water of 6.0, 7.2 and 8.0 g/L CO2 (prepared in Example I), respectively, to yield a final concentration of 2.5 ppt. The carbonation sensation of the obtained samples was evaluated.

CC[C@H](CC[C@@H](C)[C@H]1CC[C@H]2[C@@H]3CC=C4C[C@@H](O)CC[C@]4(C)[C@H]3CC[C@]12C)C(C)C [β-sitosterol, (3S,8S,9S,10R,13R,14S,17R)-17-((1R,4R)-4-ethyl-1,5-dimethyl-hexyl)-10,13-dimethyl-2,3,4,7,8,9,10,11,12,13,14,15,16,17-tetradecahydro-1H-cyclopenta[a]phenanthren-3-ol]
flavor of β-sitosterol itself [1]: no noticeable flavor
alcohol impression, equal level as alcohol solution [2]: 2.5 % ABV
Alcohol Intensity [3]: 7.21
alcohol sensation ([4]; 3 ppb in alcohol solution at 17.5% ABV): slight but noticeable increase in alcohol sensation
enhancement of alcohol sensation ([4]; 200 ppb in alcohol solution at 17.5% ABV): reached a stable plateau
alcohol sensation ([4]; at a higher concentration than 3 ppb in alcohol solution at 17.5% ABV): clear increase of alcohol intensity
alcohol sensation at the level of an alcohol solution ([5]; 25 ppb in alcohol solution at 8.75% ABV): 10 % ABV
alcohol sensation at the level of an alcohol solution ([5]; 25 ppb in alcohol solution at 17.5% ABV): 22.5 % ABV
alcohol sensation at the level of an alcohol solution ([5]; 25 ppb in alcohol solution at 21.75% ABV): 35 % ABV
Carbonation Intensity [6]: 7.19
carbonation perception ([7]; 0.1 ppt in carbonated water 7.2 g/L CO2): slight increase in carbonation perception
carbonation perception ([7]; 2.5 ppt in carbonated water 7.2 g/L CO2): clear increase in carbonation perception
enhancement of carbonation effect ([7]; 5 ppt or higher in carbonated water 7.2 g/L CO2): reached a stable plateau
carbonation sensation [8]: provided enhancement of carbonation sensation
